Earlier results on two molecules are cited in patent US6994842B2, “Aerogel powder therapeutic agents” (Aspen Aerogels, Inc., priority 2000, dated 2006).

`CCC(=O)C(CC(C)N(C)C)(c1ccccc1)c1ccccc1` (stereo not drawn) [Methadone]: the solubility in water is listed as 12 g/100 mL.

In the case of `O=C1CC[C@@]2(O)[C@H]3Cc4ccc(O)c5c4[C@@]2(CCN3CC2CC2)[C@H]1O5` [free base Naltrexone, Naltrexone], the “solubility in water” value is listed as “not that soluble”. Further, the “solubility in supercritical carbon dioxide” value (supercritical carbon dioxide) is “highly soluble”.
